{"source": "paper PMC9208212", "about": "“Comparison of anti-cancer effects of novel protein disulphide isomerase (PDI) inhibitors in breast cancer cells characterized by high and low PDIA17 expression” (Cancer Cell International, 2022)", "key": {"[1]": {"test": "MTT cytotoxicity against regular cell line MCF10A", "assay_type": "cell-based", "settings": "MCF10A human breast epithelial cells, read-out: IC50, cytotoxicity against regular cell line", "description": "(§1) The proliferation rate of the cells was measured using an MTT assay. (see Additional file 1: Methods for details). IC50 parameter was determined as previously described.\n(§2) To test cytotoxicity of compounds used in this study against regular cell lines, BALB/3T3 and MCF10A cells were used, mouse fibroblast and human breast epithelial cell line, respectively.\n(§3) The proliferation rate of the cells was measured using an MTT assay. The cells were seeded on 96-well plates (Sarstedt, Warsaw, Poland) at a density of MDA-MB-231, BALB/3T3 and MCF10A 1×10^4 cells/well, MCF-7 0.75×10^4 cells/well. Cells were incubated in the appropriate culture medium for 24 h before adding the tested compounds. Cells were then treated with each compound in four concentrations in the range 100–0.1 µg/mL. […] Absorbance was measured using a Bio Tek Hybrid H4 reader (BioTek Instruments, USA) at 570 nm wavelength.\n(§4) Compounds at each concentration were tested in triplicate in a single experiment, and each experiment was repeated at least three times independently."}, "[2]": {"molecular_target": "T1, PDIA17 (Homo sapiens, UniProt O95994)", "T1 construct": "PDIA17 (recombinant protein ab64013, human, full length, E.coli, Abcam, Cambridge); purchased Abcam ab64013; host or cells: E. coli", "T1 sequence (O95994 21-175)": "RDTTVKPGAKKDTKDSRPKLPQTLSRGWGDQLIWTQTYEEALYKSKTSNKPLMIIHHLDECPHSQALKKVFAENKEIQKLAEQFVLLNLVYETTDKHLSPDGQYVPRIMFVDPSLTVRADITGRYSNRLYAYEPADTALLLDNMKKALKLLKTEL", "test": "Insulin reduction turbidimetry assay, PDIA17", "assay_type": "biochemical", "description": "The PDI inhibitor activity towards PDIA1, PDIA3 and PDIA17 was assessed as an increase in disulphide bond reduction in human insulin in the presence of DL-dithiotreitol (DTT) causing aggregation of its β-chain, analyzed by turbidimetry as presented earlier by Kalvins et al. and Chlopicki et al. (see Additional file 1: Methods for more details).\nThe PDI inhibitors’ activity towards PDIA1, PDIA3 and PDIA17 was assessed as an increase in disulphide bond reduction in human insulin in the presence of DTT causing aggregation of its β-chain, analyzed by turbidimetry as presented earlier by Kalvins et al. 2021 and Chlopicki et al., 2021. Briefly, the assay mixture for 96-well plates was prepared by dissolving in […] phosphate buffer (pH 7.6 for activity testing of PDIA1, PDIA3 and pH 8.0 for PDIA17), 6 µg/ml (96 nM) of PDIA1 (recombinant protein MBS9422429, human, full length, 18-508aa His-tag, E.coli, MyBioSource, San Diego, CA, USA), PDIA3 (recombinant protein MBS203583, 25-505aa, human, His-tag, E.coli, MyBioSource, San Diego, CA, USA) or PDIA17 (recombinant protein ab64013, human, full length, E.coli, Abcam, Cambridge), 2 mM EDTA and 0.08 mM DTT (D9779 Sigma-Aldrich, Steinheim, Germany). Stock solutions of C-3353, C-3380, C-3389 and C-3399 were freshly prepared in dimethyl sulfoxide (DMSO) and subsequently diluted to keep the final DMSO concentration in the assay mixture below 1%. Calculated amounts of compounds solutions were added into test wells, and the reaction was started by the addition of insulin (insulin 91077C, human recombinant; Sigma-Aldrich, Steinheim, Germany) and 0.08 mM of DTT. The final concentration of insulin and DTT in the assay mixture was 0.15 and 0.16 mM, respectively. The reaction rate was monitored at 650 nm on a Microplate Reader Infinite M1000 PRO for 60 minutes at 37°C. Turbidity values for the wells containing only the PDI isoform tested (background values) were subtracted from the turbidity values of the wells containing the tested PDI isoform and selected inhibitors. […]"}, "[3]": {"test_system": "MDA-MB-231 cells", "test": "ECIS wound healing migration assay, MDA-MB-231", "assay_type": "cell-based", "settings": "Homo sapiens, tested 10, 30, 100 µM, read-out: Concentration effectively inhibiting migration (ECIS wounding assay)", "text": "(§5) The migration of MCF-7 and MDA-MB-231 cells was monitored using real-time quantitative wound healing assays and 96W1E + ECIS arrays (Applied Biophysics, Troy, NY, USA) according to the procedure reported by Stojak et al. with minor modifications and C-3353 inhibitor as a tested compound. Detailed procedures for the ECIS studies are described in Additional file 1: Methods.\n(§6) The migration of MCF-7 and MDA-MB-231 cells was monitored using real-time quantitative wound healing assays and 96W1E+ ECIS arrays (Applied Biophysics, Troy, NY, USA) according to the procedure reported by Stojak et al. (2020) with minor modifications. To this end, MDA-MB-231 cells were seeded at a density of 3 × 10^4 per well and MCF-7 cells at a density of 6 × 10^4 cells per well. Before the cell seeding procedure, the 96W1E+ plate was pretreated with 10 mM L-cysteine (Sigma-Aldrich, Steinheim, Germany) according to the manufacturer’s instruction. Immediately after cell seeding, resistance (Ω), capacitance (µF) and impedance (Ω) measurements were initiated at frequencies from 250 Hz to 64 kHz (250, 500, 1000, 2000, 4000, 8000, 16,000, 32,000 and 64,000 Hz) using the multiple frequency time mode. […] The healing process was measured continuously as cells migrated onto the electrode. The area under the curve (AUC) was quantified and normalized to the untreated control. […]"}, "[4]": {"test_system": "MCF-7 cells", "test": "MTT cell viability assay, MCF-7", "assay_type": "cell-based", "settings": "Homo sapiens, MCF7; MCF-7 (high PDIA17), 72 h; read-out: IC50, MTT proliferation", "description": "as §1, §3, §4"}, "[5]": {"test_system": "PDIA1", "settings": "recombinant human PDIA1, insulin/DTT turbidimetry, pH 7.6; cited from earlier work"}, "[6]": {"test_system": "MDA-MB-231 cells", "test": "MTT cell viability assay, MDA-MB-231", "assay_type": "cell-based", "settings": "Homo sapiens; MDA-MB-231 (low PDIA17), 72 h; read-out: IC50, MTT proliferation", "description": "as §1, §3, §4"}, "[7]": {"test": "MTT cytotoxicity against regular cell line BALB/3T3", "assay_type": "cell-based", "settings": "balb/3t3 cells, BALB/3T3 mouse fibroblasts, read-out: IC50, cytotoxicity against regular cell line", "description": "as §1, §2, §3, §4"}, "[8]": {"test_system": "MCF-7 cells", "test": "Cancer cell adhesion to collagen type I, MCF-7", "assay_type": "cell-based", "settings": "Homo sapiens, MCF7", "description": "(§7) Detailed procedures for the cancer cell adhesion studies are described in Additional file 1: Methods.\n(§8) Briefly, 96-well plates (Corning, Tewksbury, MA, USA) were coated with collagen type I at a concentration of 10 μg/mL (Sigma-Aldrich, Steinheim, Germany) and incubated at 4°C overnight. After 24 h, the plates were blocked with 1% bovine serum albumin (BSA) (Sigma-Aldrich, Steinheim, Germany) in DPBS buffer (Gibco, Scotland, UK) for 60 minutes at 37°C. […] Then, cancer cells were left to adhere to collagen I for 30 min at 37°C. Non-adherent cells were gently washed twice with DPBS, and attached cells were counted in nine randomly selected visual fields for each well using a CQ1 image cytometer (Yokogawa, Tokyo, Japan). Experiments were conducted twice in six technical replicates. The images were analyzed using Columbus 2.4.2 software (Perkin Elmer, Waltham, MA, USA)."}, "[9]": {"test_system": "MCF-7 cells", "test": "ECIS wound healing migration assay, MCF-7", "assay_type": "cell-based", "settings": "Homo sapiens, MCF7, tested 10, 30, 100 µM, read-out: Concentration substantially reducing migration rate (ECIS wounding assay)", "text": "as §5, §6"}, "[10]": {"test_system": "MDA-MB-231 cells", "test": "Cancer cell adhesion to collagen type I, MDA-MB-231", "assay_type": "cell-based", "settings": "Homo sapiens", "description": "as §7, §8"}, "[11]": {"test_system": "PDIA3", "settings": "recombinant human PDIA3, insulin/DTT turbidimetry, pH 7.6; cited from earlier work"}}}
{"smiles": "COC(=O)C1CN1S(=O)(=O)c1ccc(F)cc1F", "note": "(stereo not drawn) [Inhibitor C-3353]", "values": [{"measurement": "CC50 at 72 h", "setting": "[1]", "result": "75.6 ± 4.05", "unit": "µM"}, {"measurement": "IC50", "setting": "[2]", "result": 20.1, "unit": "µM"}, {"measurement": "minimal effective concentration", "setting": "[3]", "result": 100, "unit": "µM"}, {"measurement": "IC50", "setting": "[4]", "result": "22.5 ± 6.42", "unit": "µM"}, {"measurement": "IC50", "setting": "[5]", "result": 5, "unit": "µM"}, {"measurement": "IC50 PDIA1", "setting": "[5]", "result": "inhibitory effect on PDIA1"}, {"measurement": "IC50", "setting": "[6]", "result": "87.4 ± 9.42", "unit": "µM"}, {"measurement": "CC50 at 72 h", "setting": "[7]", "result": "> 360", "unit": "µM"}, {"measurement": "minimal effective concentration", "setting": "[8]; MCF-7, read-out: Concentration inhibiting adhesion to collagen", "result": 3, "unit": "µM"}, {"measurement": "minimal effective concentration", "setting": "[9]", "result": "≥ 30", "unit": "µM"}, {"measurement": "minimal effective concentration", "setting": "[10]; MDA-MB-231, read-out: Concentration inhibiting adhesion to collagen", "result": 50, "unit": "µM"}, {"measurement": "IC50", "setting": "[11]", "result": 143, "unit": "µM"}, {"measurement": "IC50 PDIA3", "setting": "[11]", "result": "not on PDIA3"}]}
{"smiles": "COC(=O)C1CN1S(=O)(=O)c1ccc2c(N(C)C)cccc2c1", "note": "(stereo not drawn) [Inhibitor C-3399]", "values": [{"measurement": "CC50 at 72 h", "setting": "[1]", "result": "17.9 ± 1.15", "unit": "µM"}, {"measurement": "IC50", "setting": "[2]", "result": "> 200", "unit": "µM"}, {"measurement": "IC50 PDIA17", "setting": "[2]; recombinant human PDIA17, insulin/DTT turbidimetry, pH 8.0, n.a. = not active in range of concentrations used", "result": "not effective"}, {"measurement": "IC50", "setting": "[4]", "result": "11.1 ± 0.78", "unit": "µM"}, {"measurement": "IC50", "setting": "[5]", "result": 0.12, "unit": "µM"}, {"measurement": "IC50", "setting": "[6]", "result": "8.69 ± 0.89", "unit": "µM"}, {"measurement": "CC50 at 72 h", "setting": "[7]", "result": "38.2 ± 10.3", "unit": "µM"}, {"measurement": "activity at 3 µM", "setting": "[8]; MCF-7, inhibitor 3 µM", "result": "~50", "unit": "%"}, {"measurement": "activity at 10 µM", "setting": "[10]; MDA-MB-231, inhibitor 10 µM", "result": "~75", "unit": "%"}, {"measurement": "IC50", "setting": "[11]", "result": 4, "unit": "µM"}, {"measurement": "IC50 PDIA3", "setting": "[11]", "result": "low micromolar range"}]}
